# Data reported in patent US20260138959A1, “QUINAZOLINE DERIVATIVE COMPOUND AND USE THEREOF” (VORONOI INC., priority 2021, published 2026).
# Experiments:
# [1] = tested on: c-KIT V560G/D816V; experiment: Proliferation inhibitory activity on Ba/F3 cell (CellTiter-Glo, 72 hours), c-KIT V560G/D816V; assay type: cell-based; conditions: Mus musculus, BaF3, c-KIT V560G/D816V cells, read-out: Cell (nM) c-KIT V560G/D816V (GI50 class)
# In short: (§1)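 Read-out: CellTiter-Glo after 72 h at 37 °C compound exposure, expressed as percent of vehicle-treated cells, GI50 calculated. Engineered Ba/F3 cells (3×10^3/well) received twelve 3-fold serial dilutions, final 0.00005–10 μM.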
# [2] = tested on: Ba/F3-TEL-PDGFβ(WT); experiment: Proliferation inhibitory activity on Ba/F3 cell (CellTiter-Glo, 72 hours), PDGFR-β; assay type: cell-based; conditions: Mus musculus, BaF3, read-out: Ba/F3 (nM) Tel-PDGFRβ (GI50 class)
# Method: (§2) Ba/F3-TEL-PDGFRα(WT), Ba/F3-TEL-PDGFβ(WT), Ba/F3-c-KIT(D816V) (Kyinno, #KC-0138), c-KIT V560G/D816V, c-KIT D814Y were seeded at 3×10^3/100 μl/well in a clear bottom white 96-well plate. A culture solution containing compounds of 12 concentrations (0.00001-2 mM) serially diluted in 3 folds and the DMSO control group was added at 0.5 μl/well each to a final concentration of 0.00005-10 μM, and then incubated in a CO2 incubator at 37° C. for 72 hours. After 72 hours, the plate treated with the compound was taken out, CellTiter-Glo® Assay (Promega) solution was treated with 100 μl/well, followed by mixing well. After mixing well for about 10 minutes at room temperature, […] was measured using a microplate reader. The data were presented as percentages in proportion to treated cells based on the vehicle, GI50 (nM) values were calculated using GraphPad Prism 8.3.0 (GraphPad software Inc., San Diego).
# (§3) The inhibitory activities of Ba/F3 expressing PDGFR-α, PDGFR-β, c-KIT(D816V), c-KIT V560G/D816V, and c-KIT D814Y measured as described above were measured and shown in Table 7 below (A: GI50≤200 nM; B: 200 nM<GI50≤500 nM; C: GI50>500 nM).
# [3] = target: T1, human PDGFR-β(wt) (Homo sapiens, UniProt P09619); experiment: Enzyme inhibitory activity, ADP-Glo kinase assay, PDGFR-β(wt); assay type: biochemical; conditions: read-out: PDGFR-β (IC50 class)
# T1 construct: purchased Signalchem P13-11G
# T1 sequence (P09619 33-1106): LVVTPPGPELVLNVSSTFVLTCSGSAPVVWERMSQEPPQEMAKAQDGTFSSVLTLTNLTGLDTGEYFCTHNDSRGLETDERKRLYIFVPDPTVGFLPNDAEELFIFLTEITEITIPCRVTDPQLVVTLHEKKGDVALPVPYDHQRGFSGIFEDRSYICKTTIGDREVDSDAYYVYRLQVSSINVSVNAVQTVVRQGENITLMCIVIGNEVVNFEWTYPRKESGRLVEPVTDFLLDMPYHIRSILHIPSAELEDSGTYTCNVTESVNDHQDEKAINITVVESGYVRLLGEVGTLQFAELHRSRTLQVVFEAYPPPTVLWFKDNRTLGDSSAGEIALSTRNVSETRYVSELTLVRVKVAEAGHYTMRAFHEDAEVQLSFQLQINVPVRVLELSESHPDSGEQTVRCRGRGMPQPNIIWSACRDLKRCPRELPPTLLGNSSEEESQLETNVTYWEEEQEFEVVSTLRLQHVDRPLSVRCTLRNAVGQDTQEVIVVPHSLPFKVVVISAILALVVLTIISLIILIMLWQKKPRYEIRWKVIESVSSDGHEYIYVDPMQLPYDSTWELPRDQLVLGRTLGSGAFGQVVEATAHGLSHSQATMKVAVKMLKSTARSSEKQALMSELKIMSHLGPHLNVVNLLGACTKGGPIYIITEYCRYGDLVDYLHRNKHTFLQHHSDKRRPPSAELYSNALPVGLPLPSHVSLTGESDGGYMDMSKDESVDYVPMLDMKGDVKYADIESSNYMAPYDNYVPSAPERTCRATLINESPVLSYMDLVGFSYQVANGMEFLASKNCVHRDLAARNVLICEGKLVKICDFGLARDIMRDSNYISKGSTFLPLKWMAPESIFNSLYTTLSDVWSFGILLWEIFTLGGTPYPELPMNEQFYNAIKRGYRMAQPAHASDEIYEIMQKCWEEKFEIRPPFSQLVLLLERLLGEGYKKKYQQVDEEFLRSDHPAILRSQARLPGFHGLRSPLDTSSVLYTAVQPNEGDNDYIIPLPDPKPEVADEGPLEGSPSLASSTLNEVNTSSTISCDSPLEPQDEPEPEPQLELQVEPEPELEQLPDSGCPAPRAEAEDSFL
# In short: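 Purified human kinases incubated with ATP and substrate 1–2 h at 25 °C in 40 mM Tris-HCl pH 7.4, 20 mM MgCl2, BSA, DTT, compound over 12 concentrations (10–0.00005645 μM final). ADP formed quantified by ADP-Glo luminescence; IC50 from inhibition versus DMSO control, reported in bins A–D.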
# [4] = tested on: Ba/F3-c-KIT(D816V); experiment: Proliferation inhibitory activity on Ba/F3 cell (CellTiter-Glo, 72 hours), c-KIT(D816V); assay type: cell-based; conditions: Mus musculus, BaF3, read-out: Ba/F3 (nM) c-KIT (D816V) (GI50 class)
# In short: as §1
# [5] = tested on: Ba/F3-TEL-PDGFRα(WT); experiment: Proliferation inhibitory activity on Ba/F3 cell (CellTiter-Glo, 72 hours), PDGFR-α; assay type: cell-based; conditions: Mus musculus, BaF3, read-out: Ba/F3 (nM) Tel-PDGFRα (GI50 class)
# Method: as §2, §3
# [6] = target: T2, human PDGFR-α(wt) (Homo sapiens, UniProt P16234); experiment: Enzyme inhibitory activity, ADP-Glo kinase assay, PDGFR-α(wt); assay type: biochemical; conditions: read-out: PDGFR-α (IC50 class)
# T2 construct: purchased Signalchem P12-18G
# T2 sequence (P16234 24-1089): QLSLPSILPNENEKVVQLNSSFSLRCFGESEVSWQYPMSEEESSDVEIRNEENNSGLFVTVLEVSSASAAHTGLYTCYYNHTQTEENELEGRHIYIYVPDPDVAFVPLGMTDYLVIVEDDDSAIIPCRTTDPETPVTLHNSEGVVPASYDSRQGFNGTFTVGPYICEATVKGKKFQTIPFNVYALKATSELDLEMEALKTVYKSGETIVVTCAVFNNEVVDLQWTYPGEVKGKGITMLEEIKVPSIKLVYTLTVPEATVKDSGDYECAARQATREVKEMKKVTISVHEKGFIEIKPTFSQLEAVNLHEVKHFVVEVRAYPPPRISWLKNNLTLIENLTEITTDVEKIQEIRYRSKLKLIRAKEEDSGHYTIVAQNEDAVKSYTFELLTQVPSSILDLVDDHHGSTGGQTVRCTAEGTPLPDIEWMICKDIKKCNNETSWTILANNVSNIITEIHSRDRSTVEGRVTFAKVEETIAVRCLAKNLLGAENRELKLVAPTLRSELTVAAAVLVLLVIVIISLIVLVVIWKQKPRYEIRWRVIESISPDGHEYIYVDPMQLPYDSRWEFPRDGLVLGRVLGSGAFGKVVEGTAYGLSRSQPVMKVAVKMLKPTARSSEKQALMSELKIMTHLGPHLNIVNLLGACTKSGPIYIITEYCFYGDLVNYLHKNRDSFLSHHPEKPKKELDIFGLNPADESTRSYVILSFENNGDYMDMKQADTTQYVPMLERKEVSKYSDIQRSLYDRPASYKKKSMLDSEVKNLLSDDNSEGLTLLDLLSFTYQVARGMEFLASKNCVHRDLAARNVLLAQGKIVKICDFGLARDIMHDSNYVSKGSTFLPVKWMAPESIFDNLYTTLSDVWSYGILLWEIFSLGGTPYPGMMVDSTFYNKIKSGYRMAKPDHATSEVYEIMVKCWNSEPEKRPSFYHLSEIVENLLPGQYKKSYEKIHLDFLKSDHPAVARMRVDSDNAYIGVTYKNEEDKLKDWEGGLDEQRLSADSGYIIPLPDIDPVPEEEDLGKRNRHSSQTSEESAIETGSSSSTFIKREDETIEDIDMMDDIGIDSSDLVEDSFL
# Method: In order to evaluate the inhibitory activity of the compounds synthesized according to the above examples on PDGFR-α(wt), PDGFR-β(wt), c-KIT(wt), and c-KIT(D816V) kinases, the following method was performed. The compounds of examples were reacted with purified human PDGFR-α(wt) (Signalchem #P12-18G) enzyme, human PDGFR-β(wt) (Signalchem #P13-11G) enzyme, human c-KIT(wt) (Signalchem #K06-11BG) enzyme, human c-KIT(D816V) (Signalchem #C06-12LG) enzyme, and the enzyme inhibitory abilities were evaluated by the following method.
# The reaction buffer was used as a composition of 40 mM Tris-HCl pH7.4, 20 mM MgCl2, 0.5 mg/ml BSA, 50 μM DTT, and the reactions of all the tests were carried out on the reaction buffer. The compound was diluted in 12 steps using a serial dilution method from a 10 mM DMSO stock, and the enzyme activity was measured at a final compound concentration of 10˜0.00005645 μM. During the test, the enzyme activity was confirmed using in vitro ADP-Glo™ kinase assay (Promega) after reacting with the proper concentration of human PDGFR-α(wt) enzyme, human PDGFR-β(wt), human c-KIT(wt) enzyme, and human c-KIT(D816V) enzyme with purified ATP and enzyme substrate at 25° C. for 1˜2 hours. At a ratio of 2:2:1, an enzyme-active reaction solution, an ADP-Glo reaction solution, and an enzyme-active detection solution were reacted to measure the inhibition of the enzyme's activity with luminoscence. Based on the […] of the enzyme activity of the solvent control that was not treated with the compound, the degree of enzyme activity inhibition was calculated according to the treatment concentration of each compound, and the concentration of each compound that inhibits 50% of enzyme activity was determined as IC50 (nM) value and the value was obtained by using GraphPad Prism 8.3.0 (GraphPad software Inc., San Diego) software. (A: IC50≤50 nM; B: 50 nM<IC50≤100 nM; C: 100 nM<IC50≤500 nM; D: IC50>500 nM).
# [7] = tested on: c-KIT D814Y; experiment: Proliferation inhibitory activity on Ba/F3 cell (CellTiter-Glo, 72 hours), c-KIT D814Y; assay type: cell-based; conditions: Mus musculus, BaF3, c-KIT D814Y cells, read-out: Cell (nM) c-KIT D814Y (GI50 class)
# Method: as §2, §3
# [8] = tested on: various kinases; experiment: Inhibitory activity against various kinases, DiscoverX scanMAX Kinase panel, % control at 1 μM; assay type: binding
# Method: The activities of the compounds according to the present disclosure on various enzymes were evaluated. Specifically, it was commissioned DiscoverX to measure enzyme selectivity for the compounds of Examples 3, 9, and 83 above, and the experiment was conducted using a panel for scanMAX™ Kinase analysis. Herein, a solution prepared by dissolving in DMSO at a concentration of 1 μM was used as the drug treated with the enzyme, and the control percentage (% control) was determined by the method of Equation 1 below, and the results are shown in Table 8 below.
# Herein, when the calculated percentage value for each enzyme was less than 35%, it was determined to have inhibitory activity for the enzyme. Accordingly, among the series of enzymes tested, the enzymes showing the inhibitory activities of the compounds of the present disclosure are summarized and shown in Table 8 below along with the control percentages thereof. (©): less than 10%; ◯: 10% or more to less than 35%).
SMILES,GI50 [1],GI50 [2],IC50 [3],GI50 [4],GI50 [5],IC50 [6],GI50 [7],also measured
"COCCOc1cc2ncnc(-c3ccc(NC(=O)C(C)(N)c4ccc(F)cc4)cc3)c2cc1OCCOC (centres unmarked) [Example 58, 2-amino-N-(4-(6,7-bis(2-methoxyethoxy)quinazolin-4-yl)phenyl)-2-(4-fluorophenyl)propanamide]",> 500 nM,≤ 200 nM,≤ 50 nM,≤ 200 nM,≤ 200 nM,≤ 50 nM,–,–
"COc1cc2ncnc(-c3ccc(NC(=O)Cc4ccc(C(F)(F)F)cc4)cc3)c2cc1O[C@@H]1CCOC1 [Example 125, (R)-N-(4-(7-methoxy-6-((tetrahydrofuran-3-yl)oxy)quinazolin-4-yl)phenyl)-2-(4-(trifluoromethyl)phenyl)acetamide]",> 500 nM,–,–,≤ 200 nM,–,–,> 500 nM,–
"COc1cc2ncnc(-c3ccc(NC(=O)Cc4ccc(C(F)(F)F)cc4)cc3)c2cc1OC1CNC1 [Example 138, N-(4-(6-(azetidin-3-yloxy)-7-methoxyquinazolin-4-yl)phenyl)-2-(4-(trifluoromethyl)phenyl)acetamide]",200 to 500 nM,–,–,≤ 200 nM,–,–,≤ 200 nM,–
"CCN1CCC(COc2cc3ncnc(-c4ccc(NC(=O)CCc5ccccc5)cc4)c3cc2OC)CC1 [Example 72, N-(4-(7-((1-ethylpiperidin-4-yl)methoxy)-6-methoxyquinazolin-4-yl)phenyl)-3-phenylpropanamide]",≤ 200 nM,≤ 200 nM,≤ 50 nM,≤ 200 nM,≤ 200 nM,≤ 50 nM,–,–
"COc1cc2c(-c3ccc(NC(=O)C(C)(N)c4ccc(F)cc4)cc3)ncnc2cc1OCC(C)C (centres unmarked) [Example 10, 2-amino-2-(4-fluorophenyl)-N-(4-(7-isobutoxy-6-methoxyquinazolin-4-yl)phenyl)propanamide]",> 500 nM,200 to 500 nM,100 to 500 nM,≤ 200 nM,≤ 200 nM,≤ 50 nM,–,–
"COc1cc2c(-c3ccc(NC(=O)Cc4ccc(C#N)cc4)cc3)ncnc2cc1OCCCN1CCN(C)CC1 [Example 83, 2-(4-cyanophenyl)-N-(4-(6-methoxy-7-(3-(4-methylpiperazin-1-yl)propoxy)quinazolin-4-yl)phenyl)acetamide]",≤ 200 nM,≤ 200 nM,≤ 50 nM,≤ 200 nM,≤ 200 nM,≤ 50 nM,–,"control percentage (% control), KIT ([8]; KIT): ⊚; control percentage (% control), KIT (A829P) ([8]; KIT (A829P)): ⊚; control percentage (% control), KIT (D816H) ([8]; KIT (D816H)): ⊚; control percentage (% control), KIT (D816V) ([8]; KIT (D816V)): ⊚; control percentage (% control), KIT (L576P) ([8]; KIT (L576P)): ⊚; control percentage (% control), KIT (V559D) ([8]; KIT (V559D)): ⊚; control percentage (% control), KIT (V559D, T670I) ([8]; KIT (V559D, T670I)): ◯ (◯: 10% or more to less than 35%); control percentage (% control), KIT (V559D, V654A) ([8]; KIT (V559D, V654A)): ◯ (◯: 10% or more to less than 35%); control percentage (% control), PDGFRA ([8]; PDGFRA): ⊚; control percentage (% control), PDGFRB ([8]; PDGFRB): ⊚"
"COc1cc2c(-c3ccc(NC(=O)Cc4ccsc4)cc3)ncnc2cc1OCCCN1CCN(C)CC1 [Example 84, N-(4-(6-methoxy-7-(3-(4-methylpiperazin-1-yl)propoxy)quinazolin-4-yl)phenyl)-2-(thiophene-3-yl)acetamide]",≤ 200 nM,≤ 200 nM,≤ 50 nM,≤ 200 nM,≤ 200 nM,≤ 50 nM,–,–
"COc1cc2ncnc(-c3ccc(NC(=O)Cc4ccc(C(F)(F)F)cc4)cc3)c2cc1OCC1CCCNC1 (centres unmarked) [Example 133, N-(4-(7-methoxy-6-(piperidin-3-ylmethoxy)quinazolin-4-yl)phenyl)-2-(4-(trifluoromethyl)phenyl)acetamide]",200 to 500 nM,–,–,≤ 200 nM,–,–,> 500 nM,–
"COc1cc2c(-c3ccc(NC(=O)Cc4ccc5c(c4)CCO5)cc3)ncnc2cc1OCCCN1CCN(C)CC1 [Example 85, 2-(2,3-dihydrobenzofuran-5-yl)-N-(4-(6-methoxy-7-(3-(4-methylpiperazin-1-yl)propoxy)quinazolin-4-yl)phenyl)acetamide]",200 to 500 nM,≤ 200 nM,≤ 50 nM,≤ 200 nM,≤ 200 nM,≤ 50 nM,–,–

# Further lines, with some results ahead:
GI50 [1],GI50 [2],IC50 [3],GI50 [4],GI50 [5],IC50 [6],GI50 [7],SMILES,also measured
200 to 500 nM,–,–,≤ 200 nM,–,–,≤ 200 nM,"CCN1CC(Oc2cc3c(-c4ccc(NC(=O)Cc5ccc(C(F)(F)F)cc5)cc4)ncnc3cc2OC)C1 [Example 144, N-(4-(6-((1-ethylazetidin-3-yl)oxy)-7-methoxyquinazolin-4-yl)phenyl)-2-(4-(trifluoromethyl)phenyl)acetamide]",–
–,≤ 200 nM,≤ 50 nM,≤ 200 nM,≤ 200 nM,≤ 50 nM,–,"COc1cc2ncnc(-c3ccc(NC(=O)Cc4ccc(C(F)(F)F)cc4)cc3)c2cc1OCCCN1CC2(CCOCC2)C1 [Example 151, N-(4-(6-(3-(7-oxa-2-azaspiro[3.5]nonane-2-yl)propoxy)-7-methoxyquinazolin-4-yl)phenyl)-2-(4-(trifluoromethyl)phenyl)acetamide]",–
≤ 200 nM,–,–,≤ 200 nM,–,–,≤ 200 nM,"COc1cc2c(-c3ccc(NC(=O)Cc4ccc(C(F)(F)F)cc4)cc3)ncnc2cc1OCCCN1CC(N(C)C)C1 [Example 22, N-(4-(7-(3-(3-(dimethylamino)azetidine-1-yl)propoxy)-6-methoxyquinazolin-4-yl)phenyl)-2-(4-(trifluoromethyl)phenyl)acetamide]",–
–,≤ 200 nM,≤ 50 nM,≤ 200 nM,≤ 200 nM,≤ 50 nM,–,"CCN1CCC(COc2cc3c(-c4ccc(NC(=O)Cc5ccc(C(F)(F)F)cc5)cc4)ncnc3cc2OC)CC1 [Example 147, N-(4-(6-((1-ethylpiperidin-4-yl)methoxy)-7-methoxyquinazolin-4-yl)phenyl)-2-(4-(trifluoromethyl)phenyl)acetamide]",–
